Earlier results as cited in patent US20060292214A1, “Nanoparticulate acetaminophen formulations” (Elan Pharma International Limited, priority 2005, published 2006).

solubility in water: practically insoluble in water
Compound: CC(=O)Nc1ccc(O)cc1 [acetaminophen, 4′-hydroxyacetanilide]
